Results: PubChem BioAssay AID248 (DTP/NCI, 2004)
“And” between values parts separate entries of the source, which are not always exact repeats. Equal entries are not always repeated. Toxic doses and inconclusive results are not listed. No stated cut-off is given here; in the data, active means T/C of 150% or more; inactive means T/C below 125%.

Tested on: L1210 leukemia ip in BDF1 mice, survival T/C
Assay: NCI In Vivo Anticancer Drug Screen. Data for tumor model L1210 Leukemia (intraperitoneal) in B6D2F1 (BDF1) mice
Conditions: endpoint: mean survival time, higher = longer survival
In short: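 Transplanted-tumor mice were given test agent; controls received vehicle only. Survival readings from the two groups were divided (treated over control).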

[1] = dose: 100.0 mg/kg/injection, schedule: Q01DX001 (ip), vehicle: carboxymethylcellulose (CMC)
[2] = dose: 200.0 mg/kg/injection, schedule: Q01DX001 (ip), vehicle: carboxymethylcellulose (CMC)
[3] = dose: 400.0 mg/kg/injection, schedule: Q01DX001 (ip), vehicle: carboxymethylcellulose (CMC)
[4] = dose: 100.0 mg/kg/injection, schedule: Q01DX009 (ip), vehicle: saline with Tween-80
[5] = dose: 200.0 mg/kg/injection, schedule: Q01DX009 (ip), vehicle: saline with Tween-80
[6] = dose: 100.0 mg/kg/injection, schedule: Q04DX003 (ip), vehicle: saline with Tween-80
[7] = dose: 200.0 mg/kg/injection, schedule: Q04DX003 (ip), vehicle: saline with Tween-80
[8] = dose: 400.0 mg/kg/injection, schedule: Q04DX003 (ip), vehicle: saline with Tween-80
[9] = dose: 100.0 mg/kg/injection, schedule: Q04DX003 (ip), vehicle: Klucel (hydroxypropylcellulose) (HPC)
[10] = dose: 200.0 mg/kg/injection, schedule: Q04DX003 (ip), vehicle: Klucel (hydroxypropylcellulose) (HPC)
[11] = dose: 400.0 mg/kg/injection, schedule: Q04DX003 (ip), vehicle: Klucel (hydroxypropylcellulose) (HPC)
[12] = dose: 100.0 mg/kg/injection, schedule: Q01DX009 (ip), vehicle: Klucel (hydroxypropylcellulose) (HPC)
[13] = dose: 200.0 mg/kg/injection, schedule: Q01DX009 (ip), vehicle: Klucel (hydroxypropylcellulose) (HPC)
[14] = dose: 400.0 mg/kg/injection, schedule: Q01DX009 (ip), vehicle: Klucel (hydroxypropylcellulose) (HPC)
[15] = dose: 50.0 mg/kg/injection, schedule: Q01DX001 (ip), vehicle: saline
[16] = dose: 100.0 mg/kg/injection, schedule: Q01DX001 (ip), vehicle: saline
[17] = dose: 100.0 mg/kg/injection, schedule: Q01DX001 (ip), vehicle: Klucel (hydroxypropylcellulose) (HPC)
[18] = dose: 200.0 mg/kg/injection, schedule: Q01DX001 (ip), vehicle: Klucel (hydroxypropylcellulose) (HPC)
[19] = dose: 400.0 mg/kg/injection, schedule: Q01DX001 (ip), vehicle: Klucel (hydroxypropylcellulose) (HPC)

Measured: T/C

CC(Cl)CN(Cc1cc(CN(CC(C)Cl)CC(C)Cl)c(O)cc1O)CC(C)Cl (stereo unspecified)
inactive: dose: 12.5 mg/kg/injection, schedule: Q01DX001 (sc), vehicle: olive oil, sesame oil, peanut oil 102 % of control | dose: 12.5 mg/kg/injection, schedule: Q01DX015 (sc), vehicle: olive oil, sesame oil, peanut oil 95 % of control | dose: 25.0 mg/kg/injection, schedule: Q01DX001 (sc), vehicle: olive oil, sesame oil, peanut oil 100 % of control | dose: 25.0 mg/kg/injection, schedule: Q01DX015 (sc), vehicle: olive oil, sesame oil, peanut oil 110 % of control | dose: 50.0 mg/kg/injection, schedule: Q01DX001 (ip), vehicle: carboxymethylcellulose (CMC) 93 % of control | dose: 50.0 mg/kg/injection, schedule: Q01DX001 (sc), vehicle: olive oil, sesame oil, peanut oil 96 % of control | dose: 50.0 mg/kg/injection, schedule: Q01DX015 (sc), vehicle: olive oil, sesame oil, peanut oil 93 % of control | [1] 110 % of control | dose: 100.0 mg/kg/injection, schedule: Q01DX001 (sc), vehicle: olive oil, sesame oil, peanut oil 102 % of control | dose: 100.0 mg/kg/injection, schedule: Q01DX015 (sc), vehicle: olive oil, sesame oil, peanut oil 95 % of control | [2] 110 % of control | dose: 200.0 mg/kg/injection, schedule: Q01DX015 (sc), vehicle: olive oil, sesame oil, peanut oil 112 % of control | [3] 104 % of control | dose: 400.0 mg/kg/injection, schedule: Q01DX015 (sc), vehicle: olive oil, sesame oil, peanut oil 104 % of control | dose: 600.0 mg/kg/injection, schedule: Q01DX015 (sc), vehicle: olive oil, sesame oil, peanut oil 102 % of control

ON=C(c1ccccc1)c1ccccc1
inactive: [4] 101 % of control | [5] 105 % of control

COc1ccc(CCO)cc1
inactive: [6] 92 % of control | [7] 101 % of control | [8] 95 % of control

Cc1ncc([N+](=O)[O-])n1C
inactive: [9] 100 % of control | [10] 100 % of control | [11] 97 % of control

CC(=O)OC1CCCCCCC1
inactive: [12] 97 % of control | [9] 95 % of control | [13] 100 % of control | [10] 92 % of control | [14] 94 % of control | [11] 92 % of control

CCCCCCc1ccc2c(c1)CC(CCCC)C2 (stereo unspecified)
inactive: [15] 101 % of control | [16] 104 % of control | dose: 200.0 mg/kg/injection, schedule: Q01DX001 (ip), vehicle: saline 98 % of control | dose: 400.0 mg/kg/injection, schedule: Q01DX001 (ip), vehicle: saline 101 % of control

CN(C)c1ccc2[nH]c(=O)c3ccccc3c2c1
inactive: dose: 75.0 mg/kg/injection, schedule: Q01DX001 (ip), vehicle: carboxymethylcellulose (CMC) 101 % of control

CCOc1ccc(C2CCCCCC2OS(C)(=O)=O)cc1 (stereo unspecified)
inactive: [17] 105 % of control | [12] 95 % of control | [9] 97 % of control | [18] 96 % of control | [13] 98 % of control | [10] 103 % of control | [19] 100 % of control | [14] 93 % of control | [11] 101 % of control

CC(C)(C)N(Cc1ccccc1)Cc1ccccc1
inactive: [6] 96 % of control | [7] 98 % of control | [8] 96 % of control

O=C(O)c1cc(Cl)nc(Cl)c1
inactive: [12] 97 % of control | [13] 88 % of control

Cc1cc(SC#N)ncn1
inactive: dose: 5.0 mg/kg/injection, schedule: Q01DX001 (ip), vehicle: saline 98 % of control | dose: 10.0 mg/kg/injection, schedule: Q01DX001 (ip), vehicle: saline 101 % of control

CC(N)C(=O)c1ccccc1 (stereo unspecified)
inactive: dose: 50.0 mg/kg/injection, schedule: Q01DX009 (ip), vehicle: saline 97 % of control | dose: 100.0 mg/kg/injection, schedule: Q01DX009 (ip), vehicle: saline 92 % of control

CC(C)N(c1ccc(C(=O)O)cc1)C(C)C
inactive: dose: 100.0 mg/kg/injection, schedule: Q01DX009 (ip), vehicle: carboxymethylcellulose (CMC) 102 % of control and 109 % of control | dose: 100.0 mg/kg/injection, schedule: Q04DX002 (ip), vehicle: carboxymethylcellulose (CMC) 96 % of control and 98 % of control | dose: 100.0 mg/kg/injection, schedule: Q04DX003 (ip), vehicle: carboxymethylcellulose (CMC) 101 % of control | dose: 200.0 mg/kg/injection, schedule: Q01DX009 (ip), vehicle: carboxymethylcellulose (CMC) 102 % of control and 103 % of control | dose: 200.0 mg/kg/injection, schedule: Q04DX002 (ip), vehicle: carboxymethylcellulose (CMC) 95 % of control and 104 % of control | dose: 200.0 mg/kg/injection, schedule: Q04DX003 (ip), vehicle: carboxymethylcellulose (CMC) 98 % of control | dose: 400.0 mg/kg/injection, schedule: Q01DX009 (ip), vehicle: carboxymethylcellulose (CMC) 95 % of control and 97 % of control | dose: 400.0 mg/kg/injection, schedule: Q04DX002 (ip), vehicle: carboxymethylcellulose (CMC) 93 % of control and 86 % of control | dose: 400.0 mg/kg/injection, schedule: Q04DX003 (ip), vehicle: carboxymethylcellulose (CMC) 97 % of control

CS(=O)(=O)Nc1ccccc1
inactive: dose: 75.0 mg/kg/injection, schedule: Q04DX003 (ip), vehicle: Klucel (hydroxypropylcellulose) (HPC) 98 % of control | [17] 96 % of control | dose: 150.0 mg/kg/injection, schedule: Q04DX003 (ip), vehicle: Klucel (hydroxypropylcellulose) (HPC) 93 % of control | [18] 101 % of control | dose: 300.0 mg/kg/injection, schedule: Q04DX003 (ip), vehicle: Klucel (hydroxypropylcellulose) (HPC) 93 % of control | [19] 96 % of control

CC1(C)OCC(C2OC(c3ccccc3)OC(CO)C2O)O1 (stereo unspecified)
inactive: dose: 12.5 mg/kg/injection, schedule: Q04DX002 (ip), vehicle: saline with Tween-80 87 % of control | dose: 25.0 mg/kg/injection, schedule: Q04DX002 (ip), vehicle: saline with Tween-80 101 % of control | dose: 50.0 mg/kg/injection, schedule: Q04DX002 (ip), vehicle: saline with Tween-80 100 % of control

O=C(O)CCC(=O)CC1CCCCC1
inactive: [6] 101 % of control | [7] 87 % of control

O=S(=O)(Cl)OC(CCl)C(OS(=O)(=O)Cl)C(OS(=O)(=O)Cl)C(CCl)OS(=O)(=O)Cl (stereo unspecified)
inactive: [6] 102 % of control | [7] 97 % of control | [8] 114 % of control

Nc1nc2ncc(CNc3ccc(C(=O)NC(CCC(=O)O)C(=O)O)cc3F)nc2c(=O)[nH]1 (stereo unspecified)
inactive: [15] 109 % of control | [16] 105 % of control

Nc1ncn(C2CC(OC(=O)c3ccc(Cl)cc3)C(COC(=O)c3ccc(Cl)cc3)O2)c(=O)n1 (stereo unspecified)
inactive: dose: 100.0 mg/kg/injection, schedule: Q01DX005 (ip), vehicle: saline 110 % of control and 122 % of control | dose: 200.0 mg/kg/injection, schedule: Q01DX005 (ip), vehicle: saline 104 % of control

COP(=O)(OC)C(OC(=O)C(C)(C)Br)=C(C)C
inactive: [6] 102 % of control | [7] 106 % of control | [8] 113 % of control

CC(=O)c1ccc(C(C)(C)C)cc1
inactive: [1] 105 % of control | [2] 100 % of control | [3] 100 % of control

O=S1(=O)CCCC1=C(c1ccccc1)c1ccccc1
inactive: [4] 105 % of control | [5] 100 % of control | dose: 400.0 mg/kg/injection, schedule: Q01DX009 (ip), vehicle: saline with Tween-80 107 % of control

CC(=O)Nc1ccc2ccccc2c1Br
inactive: [12] 104 % of control | [9] 95 % of control | [13] 103 % of control | [10] 95 % of control | [14] 119 % of control | [11] 95 % of control

N#CC(C#N)=Cc1ccc(Cl)c(Cl)c1
inactive: dose: 50.0 mg/kg/injection, schedule: Q01DX001 (ip), vehicle: other 102 % of control | dose: 100.0 mg/kg/injection, schedule: Q01DX001 (ip), vehicle: other 107 % of control | [12] 92 % of control | [9] 96 % of control | dose: 200.0 mg/kg/injection, schedule: Q01DX001 (ip), vehicle: other 107 % of control | [13] 93 % of control | [10] 102 % of control | [14] 86 % of control | [11] 95 % of control

CSc1nc(N)c2n[nH]nc2n1
inactive: [6] 103 % of control | [7] 95 % of control | [8] 95 % of control
